In patent US7612057B2, “Supramolecular complexes as photoactivated DNA cleavage agents” (Virginia Tech Intellectual Properties, Inc., priority 2002, dated 2009):

What was measured:
pUC18 plasmid = assay: Photocleavage of pUC18 plasmid DNA assayed by agarose gel electrophoresis; type: biochemical
Experimental: FIG. 10A-C. (a) Schematic representations of imaged agarose gel showing the photocleavage of pUC18 plasmid by [{(bpy)2Ru(dpp)}2RhCl2]^5+ in the absence of molecular oxygen. Lane 1 λ molecular weight standard, lanes 2 and 3 plasmid controls, lanes 4 and 6 plasmid incubated at 37° C. (2 h) in the presence of [(bpy)2Ru(dpp)]^2+ and [{(bpy)2Ru(dpp)}2RhCl2]^5+, respectively (1:5metal complex/base pair), lanes 5 and 7 plasmid irradiated at λ≧475 nm for 10 min in the presence of [(bpy)2Ru(dpp)]^2+ and [{(bpY)2Ru(dpp)}2RhCl2]^5+, respectively. (b) Lanes 1 and 2 plasmid controls, lanes 3 and 5 plasmid incubated at 37° C. (3 h) in the presence of [{(bpy)2Ru(bpm)}2RhCl2]^5+ and [{(bpy)2Ru(dpp)}2IrCl2]^5+, respectively, lanes 4 and 6 plasmid irradiated at λ≧475 nm for 10 min in the presence of [{(bpy)2Ru(bpm)}2RhCl2]^5+ and [{(bpy)2Ru(dpp)}2IrCl2]^5+, respectively. (c) Imaged agarose gel showing photocleavage of pBluescript plasmid in the absence of molecular oxygen by [(bpy)2Ru(dpp)RhCl2(dpp)Ru(bpy)2](PF6)5. Lane 1 is the λ molecular weight standard, lane 2 is the control linearized DNA (cut with HindIII) with no metal present, lane 3 is the control circular DNA with no metal present, lane 4 is a 1:5 metal complex/base pair mixture of the plasmid with the metal complex incubated at 37° C. (4 h), and lane 5 is a 1:5 metal complex/base pair mixture of the plasmid with the metal complex photolyzed at 520±5 nm for 4 h. All gels used 0.8% agarose, 90 mM Tris, and 90 mM boric acid buffer (pH=8.2, ionic strength=0.0043 M calculated using the Henderson-Hasselbalch equation).
(§1) A, DNA Photocleavage of pUC18 using [{(bpy)2Os(dpp)}2RhCl2](PF6)5:Lane 1 is the λ molecular weight standard, Lane 2 is a plasmid control, Lane 3 is a 1:5 metal complex/base pair mixture of the plasmid with the metal complex incubated at 37° C. for 20 minutes, Lane 4 is a 1:5 metal complex/base pair mixture of the plasmid with the metal complex photolyzed at >475 nm for 20 minutes.
C, DNA Photocleavage of pUC18 using [{(tpy)RuCl(bpm)}2RhCl2](PF6)3:Lane 1 is the λ molecular weight standard, Lane 2 is a plasmid control, Lane 3 is the plasmid alone photolyzed λ>475 nm for 15 mins, Lane 4 is a 1:5 metal complex/base pair mixture of the plasmid with the metal complex incubated at 37° C. for 15 minutes, Lane 5 is a 1:5 metal complex/base pair mixture of the plasmid with the metal complex photolyzed at >475 nm for 15 minutes.
pUC18 and pBluescript were used to probe pbotocleavage of DNA by gel electrophoresis.^14,26,41,42 pUC18 plasmid is 2686 bp (Bayou Biolabs). Irradiation used a 1000 W xenon arc lamp, a water IR filter, and a 475 nm cut off filter. Solutions were 3.5 μM in metal complex and 6.9 mM in phosphate buffer (pH=7) and allowed for ionic association of the cationic metal complexes with DNA. Dexoygenation was accomplished by bubbling with Ar for 30 min prior to the photolysis of the samples in an airtight cell blanketed with Ar.
The photocleavage of DNA by [{(bpy)2Ru(dpp)}2RhCl2]^5+ but not the monometallic ruthenium synthon illustrates the role of the supramolecular architecture, including Rh, on the desired photoreactivity. The cleavage product migrates slightly slower through the gel than native nicked plasmid, and similar results have been observed by Turro.^14 […]

Vero cells = assay: Photoinduced inhibition of Vero cell replication; type: cell-based
Experimental: Photoinduced inhibition of Vero cell replication by the supramolecular complex [{(bpy)2Ru(dpp)}2RhCl2](PF6)5 was investigated. All experiments were carried out with 0.5 mg/mL of [{(bpy)2Ru(dpp)}2RhCl2](PF6)5 in MEM media, and the results are shown in FIG. 11A. This cell line normally replicates once each 24 hours.
The concentration dependence of photoinduced inhibition of cell replication by the supramolecular complex [{(bpy)2Ru(dpp)}2RhCl2]Cl5 is shown in FIG. 11B. […] This is likely due to photoinduced death of the irradiated cells.

pBluescript plasmid = assay: Photocleavage of pBluescript plasmid DNA assayed by agarose gel electrophoresis; type: biochemical
Experimental: FIG. 10A-C. […] Lane 1 λ molecular weight standard, lanes 2 and 3 plasmid controls, lanes 4 and 6 plasmid incubated at 37° C. […] (b) Lanes 1 and 2 plasmid controls, lanes 3 and 5 plasmid incubated at 37° C. […] Lane 1 is the λ molecular weight standard, lane 2 is the control linearized DNA (cut with HindIII) with no metal present, lane 3 is the control circular DNA with no metal present, lane 4 is a 1:5 metal complex/base pair mixture of the plasmid with the metal complex incubated at 37° C. (4 h), and lane 5 is a 1:5 metal complex/base pair mixture of the plasmid with the metal complex photolyzed at 520±5 nm for 4 h. All gels used 0.8% agarose, 90 mM Tris, and 90 mM boric acid buffer (pH=8.2, ionic strength=0.0043 M calculated using the Henderson-Hasselbalch equation).
as §1, with “B,” for “A,”, “pBluescript” for “pUC18”, “[{(tpy)RuCl(dpp)}2RhCl2](PF6)3:Lane” for “[{(bpy)2Os(dpp)}2RhCl2](PF6)5:Lane”
pUC18 and pBluescript were used to probe pbotocleavage of DNA by gel electrophoresis.^14,26,41,42 pUC18 plasmid is 2686 bp (Bayou Biolabs). Irradiation used a 1000 W xenon arc lamp, a water IR filter, and a 475 nm cut off filter. […]

**Q.** `F[P-](F)(F)(F)(F)F.F[P-](F)(F)(F)(F)F.F[P-](F)(F)(F)(F)F.F[P-](F)(F)(F)(F)F.F[P-](F)(F)(F)(F)F.[Cl-].[Cl-].[Os+2].[Os+2].[Rh+3].c1ccc(-c2ccccn2)nc1.c1ccc(-c2ccccn2)nc1.c1ccc(-c2ccccn2)nc1.c1ccc(-c2ccccn2)nc1.c1ccc(-c2nccnc2-c2ccccn2)nc1.c1ccc(-c2nccnc2-c2ccccn2)nc1` [[{(bpy)2Os(dpp)}2RhCl2](PF6)5, [(2,2′-bipyridine)2Os(2,3-bis(2-pyridyl)pyrazine)RhCl2(2,3-bis(2-pyridyl)pyrazine)Os(2,2′-bipyridine)2](PF6)5] was tested. Which DNA photocleavage (pUC18 plasmid; photolyzed at >475 nm for 20 minutes, 1:5 metal complex/base pair (FIG. 12A)) did it give?
**A.** The DNA photocleavage was “efficiently cleave DNA”.

**Q.** For `F[P-](F)(F)(F)(F)F.F[P-](F)(F)(F)(F)F.F[P-](F)(F)(F)(F)F.F[P-](F)(F)(F)(F)F.F[P-](F)(F)(F)(F)F.[Cl-].[Cl-].[Rh+3].[Ru+2].[Ru+2].c1ccc(-c2ccccn2)nc1.c1ccc(-c2ccccn2)nc1.c1ccc(-c2ccccn2)nc1.c1ccc(-c2ccccn2)nc1.c1ccc(-c2nccnc2-c2ccccn2)nc1.c1ccc(-c2nccnc2-c2ccccn2)nc1` [[{(bpy)2Ru(dpp)}2RhCl2](PF6)5], which “Toxicity to cells in the dark” value (Vero cells; Vero cells, no illumination, 0.5 mg/mL) is on record?
**A.** Its value is “not toxic to cells in the dark”.

**Q.** What about the “Vero cell replication, complex alone” value (Vero cells; incubated in the dark, without illumination, MEM media (FIG. 11A)) of the same compound?
**A.** The value was “did not impact replication”.

**Q.** And the “Photoinduced inhibition of Vero cell replication” value (Vero cells; photolysis at λ>475 nm after incubation with 0.5 mg/mL complex in MEM media (FIG. 11A))?
**A.** Its value is “greatly inhibits cell replication”.

**Q.** And the DNA photocleavage (pBluescript plasmid; presence of molecular oxygen)?
**A.** The DNA photocleavage was “also observed in the presence of molecular oxygen”.

**Q.** And the “DNA cleavage without irradiation” value (pUC18 plasmid; incubated at 37° C. for 2 h, 1:5 metal complex/base pair)?
**A.** The value was “the plasmid DNA is not cleaved”.

**Q.** What about the “DNA photocleavage (supercoiled to nicked form)” value (pUC18 plasmid; irradiated λ≧475 nm for 10 min, absence of molecular oxygen, 1:5 metal complex/base pair, 3.5 μM complex, phosphate buffer pH 7) of the same compound?
**A.** Its value is “conversion of the supercoiled DNA to the nicked form is observed”.

**Q.** What about the DNA photocleavage (pUC18 plasmid; irradiated λ≧475 nm, presence of molecular oxygen) of the same compound?
**A.** Its DNA photocleavage is “also observed in the presence of molecular oxygen”.

**Q.** For `F[P-](F)(F)(F)(F)F.F[P-](F)(F)(F)(F)F.F[P-](F)(F)(F)(F)F.[Cl-].[Cl-].[Cl-].[Cl-].[Rh+3].[Ru+2].[Ru+2].c1ccc(-c2cccc(-c3ccccn3)n2)nc1.c1ccc(-c2cccc(-c3ccccn3)n2)nc1.c1ccc(-c2nccnc2-c2ccccn2)nc1.c1ccc(-c2nccnc2-c2ccccn2)nc1` [[{(tpy)RuCl(dpp)}2RhCl2](PF6)3, [(2,2′:6′,2″-terpyridine) RuCl(2,3-bis(2-pyridyl)pyrazine)RhCl2(2,3-bis(2-pyridyl)pyrazine)RuCl(2,2′:6′,2″-terpyridine)](PF6)3], which DNA photocleavage (pBluescript plasmid; photolyzed at >475 nm for 20 minutes, 1:5 metal complex/base pair (FIG. 12B)) is on record?
**A.** The DNA photocleavage was “efficiently cleave DNA”.

**Q.** “[(2,2′:6′,2″-terpyridine)RuCl(2,2′-bipyridimidine)RhCl2(2,2′-bipyridimidine)RuCl(2,2′:6′,2″-terpyridine)](PF6)3 [[{(tpy)RuCl(bpm)}2RhCl2](PF6)3]” was tested. Which DNA photocleavage (pUC18 plasmid; photolyzed at >475 nm for 15 minutes, 1:5 metal complex/base pair (FIG. 12C)) did it give?
**A.** Its DNA photocleavage is “efficiently cleave DNA”.
